The subject of data set [1] is HCV replicon in human hepatoma Huh-7 cell line. The data set can be described thus: Anti-HCV replicon assay, EC50 (luciferase luminescence). The settings on record: Hepatitis C virus, Huh-7, 72 h. It is filed as cell-based. A digest of the protocol: (§1)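 Huh-7 cells carrying HCV replicon (6000/well) incubated with serially diluted compound, 0.5% DMSO final, 3 days at 37° C, 5% CO2. EC50 from luciferase luminescence after 30 min lysis/substrate at room temperature; CC50 from CellTiter-Glo luminescence after 10 min at room temperature.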

The nature of data set [2]: CC50 assay (CellTiter-Glo) in Huh-7 HCV replicon cells. The class given is cell-based. The note with it: human. In a few lines:
as §1
(ATP-based viability assays read luminescence as a measure of living cells.)

The results in this text go back to US8536187B2 (Gilead Sciences, Inc., priority 2008, dated 2013).

Each structure is given as a SMILES string. Some results are limits rather than exact numbers.

For orientation: EC50 means the concentration that produces a half-maximal response. The CC50 is the concentration at which the toxic effect on the cells reaches its halfway point. For the molecule `COCC#Cc1ccc2nc(NCc3cc(C(F)(F)F)cc(S(N)(=O)=O)c3)nc(NCC(F)(F)F)c2n1` [Example 282, 3-((6-(3-methoxyprop-1-ynyl)-4-(2,2,2-trifluoroethylamino)pyrido[3,2-d]pyrimidin-2-ylamino)methyl)-5-(trifluoro-methyl)benzenesulfonamide], in data set [1], the EC50 fell in the range of 250 to 2000 nM. Further, the CC50 at 3 days in data set [2] (Table 2, 3 days incubation) is > 10000 nM.

As to `CCS(=O)(=O)c1cccc(-c2ccc3nc(N[C@H](C)c4ccc(-n5cncn5)cc4)nc(NCC(F)(F)F)c3n2)c1` [Example 182, N^2-((R)-1-(4-(1H-1,2,4-triazol-1-yl)phenyl)ethyl)-6-(3-(ethylsulfonyl)phenyl)-N^4-(2,2,2-trifluoroethyl)pyrido [3,2-d]pyrimidine-2,4-diamine], in data set [1], the EC50 is < 100 nM. The molecule also had a CC50 at 3 days in data set [2] (Table 2, 3 days incubation) of 1000 to 10000 nM.

For `Cc1nc(C)n(-c2ccc(CNc3nc(OC4(C)CC4)c4nc(-c5cccc(S(C)(=O)=O)c5)ccc4n3)cc2)n1` [Example 203, N-(4-(3,5-dimethyl-1H-1,2,4-triazol-1-yl)benzyl)-4-(1-methylcyclopropoxy)-6-(3-(methylsulfonyl)phenyl)pyrido [3,2-d]pyrimidin-2-amine], the EC50 in data set [1] was < 100 nM. Further, the CC50 at 3 days in data set [2] (Table 2, 3 days incubation) was > 10000 nM.

`Cc1cc(S(N)(=O)=O)ccc1CNc1nc(NCC(F)(F)F)c2nc(-c3ccc(F)cc3)ccc2n1` [Example 4, 4-{[6-(4-Fluoro-phenyl)-4-(2,2,2-trifluoro-ethylamino)-pyrido[3,2-d]pyrimidin-2-ylamino]-methyl}-3-methyl-benzenesulfonamide] came in with an EC50 in data set [1] of 250 to 2000 nM. Further, the CC50 at 3 days in data set [2] (Table 1, 3 days incubation) was > 25000 nM.

For the molecule `COc1ccc(-c2ccc3nc(NCc4ccc(F)c(F)c4)nc(NCC(F)(F)F)c3n2)cc1S(C)(=O)=O` [Example 161, N^2-(3,4-difluorobenzyl)-6-(4-methoxy-3-(methylsulfonyl)phenyl)-N^4-(2,2,2-trifluoroethyl) pyrido[3,2-d]pyrimidine-2,4-diamine], in data set [1], the EC50 is < 100 nM. Further, in data set [2] (Table 2, 3 days incubation), the CC50 at 3 days was > 10000 nM.

As to `C[C@@H](Nc1nc(NCC(F)(F)F)c2nc(-c3cccc(S(C)(=O)=O)c3)ccc2n1)c1ccc(S(N)(=O)=O)cc1` [Example 17, (R)-4-{1-[6-(3-Methanesulfonyl-phenyl)-4-(2,2,2-trifluoro-ethylamino)-pyrido[3,2-d]pyrimidin-2-ylamino]-ethyl}-benzenesulfonamide], in data set [1], the EC50 is < 100 nM. The CC50 at 3 days in data set [2] (Table 1, 3 days incubation) is 10000 to 25000 nM.

In the case of `COc1ccc(-c2ccc3nc(NCc4ccc(S(N)(=O)=O)cc4)nc(NCC(F)(F)F)c3n2)cc1S(=O)(=O)N1CCOCC1` [Example 227, 4-((6-(4-methoxy-3-(morpholinosulfonyl)phenyl)-4-(2,2,2-trifluoroethylamino)pyrido[3,2-d]pyrimidin-2-ylamino)methyl)benzene-sulfonamide], the EC50 in data set [1] was < 100 nM. The CC50 at 3 days in data set [2] (Table 2, 3 days incubation) was 1000 to 10000 nM.

Consider `COc1ccc(-c2ccc3nc(NCc4ccc(S(N)(=O)=O)cc4)nc(NC4(C(F)(F)F)CC4)c3n2)cc1S(C)(=O)=O` [Example 28, 4-{[6-(3-Methanesulfonyl-4-methoxy-phenyl)-4-(1-trifluoromethyl-cyclopropylamino)-pyrido[3,2-d]pyrimidin-2-ylamino]-methyl}-benzenesulfonamide], for which the EC50 in data set [1] is < 100 nM. This molecule yielded a CC50 at 3 days in data set [2] (Table 2, 3 days incubation) of 1000 to 10000 nM.

`CCOc1ccc(-c2ccc3nc(NCc4ccc(-n5cncn5)cc4)nc(NCC(F)(F)F)c3n2)cc1S(C)(=O)=O` [Example 183, N^2-(4-(1H-1,2,4-triazol-1-yl)benzyl)-6-(4-ethoxy-3-(methylsulfonyl)phenyl)-N^4-(2,2,2-trifluoroethyl)pyrido [3,2-d]pyrimidine-2,4-diamine]: the EC50 in data set [1] is < 100 nM. The same molecule gave a CC50 at 3 days in data set [2] (Table 2, 3 days incubation) of 1000 to 10000 nM.

With `CC#Cc1ccc2nc(N[C@H](C)c3ccc(S(N)(=O)=O)cc3)nc(NCC(F)(F)F)c2n1` [Example 298, (R)-4-(1-(6-(prop-1-ynyl)-4-(2,2,2-trifluoroethylamino)pyrido[3,2-d]pyrimidin-2-ylamino)ethyl)benzene-sulfonamide], the EC50 in data set [1] was < 100 nM. In addition, in data set [2] (Table 2, 3 days incubation), the CC50 at 3 days is > 10000 nM.
